The values below come from BindingDB's records for doi:10.1021/jm061344o (Incyte, 2007).

Structures are written as SMILES.

In general, IC50 refers to the concentration at which inhibition is half-maximal. Higher therefore signals weaker potency.

A short description of this assay: Inhibition of Her2 sheddase activity in BT474 cell line.

Take `O=C(NO)[C@H]1CCCN[C@@H]1C(=O)N1CC[C@H](c2ccccc2)C1` [(2S,3S)-N-hydroxy-2-((R)-3-phenylpyrrolidine-1-carbonyl)piperidine-3-carboxamide]: half-maximal inhibition (IC50) was put at 560 nM.
For the molecule `O=C(NO)[C@H]1CC2(CC2)CN[C@@H]1C(=O)N1CCN2c3ccccc3CC2C1` (stereo partly drawn) [(6S,7S)-N-hydroxy-6-(3,4,10,10a-tetrahydropyrazino[1,2-a]indol-2(1H)-ylcarbonyl)-5-azaspiro[2.5]octane-7-carboxamide], the midpoint of inhibition, the IC50, lay at 280 nM.
In the case of `O=C(NO)[C@H]1CC2(CC2)CN[C@@H]1C(=O)N1CCC(c2ccccc2)CC1` [(6S,7S)-N-hydroxy-6-[(4-phenylpiperidin-1-yl)carbonyl]-5-azaspiro[2.5]octane-7-carboxamide] it was 140 nM.
